Test results reported in PMC10820135, “Pharmacokinetic, Tissue Distribution, Metabolite, and Toxicity Evaluation of the Matrine Derivative, (6aS, 10S, 11aR, 11bR, 11cS)-10-Methylaminododecahydro-3a, 7a-Diaza-benzo (de) Anthracene-8-thione” (Molecules, 2024).

Tests used:
[1] = Metabolite profiling of MASM in rats by UHPLC-QQQ-MS/MS; format: in vivo, Sprague-Dawley rats; conditions: rat
Description: The identification of the in vivo metabolites of MASM was conducted using UHPLC-QQQ-MS/MS combined with standard references and deuterium-labeled MASM. The findings are presented in Table 2, while the proposed primary metabolic pathway of MASM in rats is depicted in Figure 4. To provide a comprehensive understanding of the metabolite identification process, three representative metabolites of MASM are presented, with their identification relying on primary and secondary mass spectrometry data, standard references, and deuterium-labeled MASM. The remaining metabolites are detailed in Supplementary File S4. For instance, the identification of the metabolite, M1, as a demethylation product of MASM was accomplished through the utilization of MS, MS/MS data, and the standard reference. […] Moreover, the identification of M1 as the demethylation metabolite of MASM was accomplished using the standard reference synthesized in our laboratory. […] Secondly, the metabolite, M2, of MASM was identified as the dehydrogenation product of MASM through the utilization of MS and MS/MS data. […] Consequently, M2 was identified as a dehydrogenation metabolite of M1. Thirdly, through the utilization of MS, MS/MS data, and deuterium-labeled MASM, the metabolite, M8, of MASM was determined to be a dehydrogenation product of MASM. […] The major MS/MS fragment ions of M8 were found at m/z 111.92, 178.77, 150.16, and 135.85, which aligned with the characteristic cleavage pattern of matrine. Additionally, our lab synthesized deuterium-labeled MASM to further support our proposed structure. […] Consequently, M8 was identified as a dehydrogenation metabolite of MASM. The EIC, MS/MS spectrum of M8 and deuterium-labeled MASM are all depicted in Figure 5C.
UHPLC analysis was performed using a Thermo Accela AS system, employing an ACQUITY UPLC®BEH C18 (Waters Corporation, Wexfords, Ireland) (1.7 µm, 2.1 × 100 mm) column and a binary solvent system consisting of water containing 0.1% formic acid as mobile phase A and acetonitrile as mobile phase B. For pharmacokinetic evaluation, the gradient elution was set as follows: 97% A from 0 to 2 min, 97–70% A from 2 to 3 min, 70–20% A from 3 to 3.5 min, 20% A from 3.5 to 3.6 min, 20–97% A from 3.6 to 3.7 min, and 97% A from 3.7 to 5 min. For the metabolic test, the gradient elution in full scan mode was set as follows: 97% A from 0 to 2 min, 97–70% A from 2 to 4 min, 70–20% A from 4 to 6 min, 20% A from 6 to 7 min, 20–97% A from 7 to 8 min, and 97% A from 8 to 10 min. The flow rate was 0.2 mL/min, with a temperature of 40 °C maintained and an injection volume of 5 μL. The QQQ-MS/MS analysis was conducted using a Thermo TSQ QUANTUM ACCESS MAX system equipped with an electrospray ionization (ESI) source. The spray voltages were set at 4.0 kV and 2.5 kV for positive and negative ion modes, respectively; capillary and vaporizer temperatures were 320 °C and 350 °C, respectively; sheath and aux gas pressures were 35 and 10 psi, respectively.
Seventy Sprague-Dawley rats were fasted overnight before dosing, with free access to water. Subsequently, the rats were randomly and equally divided into 7 groups: the control groups received 3 different routes of administration: intravenous, intraperitoneal, and intragastric (NS, saline 1 mL/100 g); MASM intraperitoneal group (A, i.p. 80 mg/kg), MASM intragastrical group (B, i.g. 60 mg/kg), MASM intravenous group (C, i.v. 15 mg/kg), and DMASM intragastrical group (D, i.g. 60 mg/kg). It is important to note that the recommended clinical dose of matrine injection is 0.15 g, which is equivalent to a dosage of 15 mg/kg in rats. MASM was administered via tail vein injection at a dosage of 1 mL/100 g for intravenous dosing, while for intraperitoneal dosing, MASM was injected at the lower-right side of the abdomen of rats. […]

[2] = Stability of MASM in plasma QC samples; format: in vitro ADME; conditions: QC samples: autosampler 4℃ 8 h, -80℃ 30 days, three freeze-thaw cycles
Description: determined by calculating the RSD of 6 samples analyzed on the same day, while the inter-day precision was determined by calculating the RSD of 3 analytical batches analyzed over 3 consecutive days.
1.4 Extraction recovery and matrix effect
The extraction recovery was in assessed by comparing the peak area of the blank […]
i n E q . […]
Extraction recovery=Ap/Ax×100% Eq. (1)
Matrix effect=Ax/As×100% Eq. (2)
Ap: 10 μl of high (H), medium (M), and low (L) concentration of standard solution and 300 μl of IS were added to 90 μl of blank plasma, respectively, then pre-processed by sample pretreatment method and injected to obtain the peak area A p. […]
The stability of analytes in plasma was assessed by analyzing peak area in three different concentration QC samples. The long-term stability was evaluated by analyzing samples that had been stored at a temperature of -80℃ for a duration of 30 days. […]
freeze-thaw stability was assessed by analyzing samples that had undergone three freeze-thaw cycles, transitioning from a temperature of -80℃ to 25℃. Post-preparative stability was assessed by analyzing samples that had been stored in the autosampler at 4℃ for a duration of 8 h. […]
0.990 across the relevant concentration ranges (Supplementary Table S1). The lower limit of the quantitation (LLOQ) was determined to be 5.03 ng/ml. […]

CNC1CC(=S)N2CC3CCCN4CCCC(C34)C2C1 [MASM, (6aS, 10S, 11aR, 11bR, 11cS)-10-methylaminododecahydro-3a, 7a-diaza-benzo (de) anthracene-8-thione]
number of in vivo metabolites identified [1]: 10
primary metabolic reactions (phase I) [1]: oxidation, reduction, and hydroxylation
stability in plasma [2]: stable
